Experimental data published in US20240325398A1, “COMBINATION THERAPIES” (Infinity Pharmaceuticals, Inc., priority 2014, published 2024).

What was measured:
DOHH-2 = experiment: Combination study, ATPLite 72 h, dose matrix (Synergy Score, CI50); conditions: combination with Compound 1, 72 h
Farage = experiment: as above; conditions: combination with Compound 1; Farage; 72 h
Procedure: (§1) Cells are thawed from a liquid nitrogen preserved state. Once cells have been expanded and divide at their expected doubling times, screening begins. Cells are seeded in growth media in either black 1536-well or 384-well tissue culture treated plates. Cells are then equilibrated in assay plates via centrifugation and placed in incubators attached to the Dosing Modules at 37° C. for 24 hours before treatment. […] These Tzero (To) plates are read using ultra-sensitive luminescence on Envision plate readers (Perkin Elmer). Treated assay plates are incubated with compound for 72 hours. After 72 hours, plates are developed for endpoint analysis using ATPLite. All data points are collected via automated processes, quality controlled and analyzed using Zalicus software.
(§2) where T is treated cell count and V is untreated (vehicle) cell count (at 72 hours). I ranges from 0% (when T=V) to 100% (when T=0). […] The measure of effect in the experiment can be the inhibition of cellular response relative to the untreated level (vehicle alone). […] The inhibition ranges from 0% at the untreated level to 100% when T=0. Inhibition levels are negative for agents that actually increase levels. Other effect measures, such as an activity ratio r=T/V may be more appropriate for some assays. When activity ratios (e.g, fold increase over stimulated control) are being used, the effect can be measured using an induction 1=ln(T/V). With this definition, all effect expressions are the same as for inhibition.
(§3) Growth Inhibition (GI) is used as a measure of cell viability. […] A GI reading of 100% represents complete growth inhibition—T72 compound-treated and T0 vehicle signals are matched. […] A GI reading of 200% represents complete death of all cells in the culture well. Compounds reaching an activity plateau of GI 200% are considered cytotoxic. GI is calculated by applying the following test and equation:
(§4) Combination analysis data were collected in a 6×6 dose matrix. Synergy is calculated by comparing a combination's response to those of its single compound, against the drug-with-itself dose-additive reference model. Deviations from dose additivity may be assessed visually on an isobologram or numerically with a Combination Index (CI). […] Additive effect is CI=1.0. […] Antagonistic effect is CI>1.0.
The isobologram was drawn by identifying the locus of concentrations that correspond to crossing the indicated inhibition level. This is done by finding the crossing point for each single agent concentration in a dose matrix across the concentrations of the other single agent. Practically, each vertical concentration CY is held fixed while a bisection algorithm is used to identify the horizontal concentration CX in combination with that vertical dose that gives the chosen effect level in the response surface Z(CX,CY). These concentrations are then connected by linear interpolation to generate the isobologram display. For synergistic interactions, the isobologram contour fall below the additivity threshold and approaches the origin, and an antagonistic interaction would lie above the additivity threshold. The error bars represent the uncertainty arising from the individual data points used to generate the isobologram. The uncertainty for each crossing point is estimated from the response errors using bisection to find the concentrations where Z−αZ(CX,CY) and Z+σZ(CX,CY) cross Icut, where αZ is the standard deviation of the residual error on the effect scale.
(§5) To measure combination effects in excess of Loewe additivity, a scalar measure to characterize the strength of synergistic interaction termed the Synergy Score is devised. The Synergy Score is calculated as:
The fractional inhibition for each component agent and combination point in the matrix is calculated relative to the median of all vehicle-treated control wells.

SU-DHL-10-epst = experiment: as above; conditions: combination with Compound 1, 72 h
WSU-NHL = experiment: as above; conditions: combination with Compound 1, 72 h
HBL-1 = experiment: as above; conditions: combination with Compound 1, 72 h
Procedure: as §1, §2, §3, §4, §5
(§6) The fractional inhibition for each component agent and combination point in the matrix is calculated relative to the median of all vehicle-treated control wells. The Synergy Score equation integrates the experimentally-observed activity volume at each point in the matrix in excess of a model surface numerically derived from the activity of the component agents using the Loewe model for additivity. Additional terms in the Synergy Score equation (above) are used to normalize for various dilution factors used for individual agents and to allow for comparison of synergy scores across an entire experiment. The inclusion of positive inhibition gating or an Idata multiplier removes noise near the zero effect level, and biases results for synergistic interactions at that occur at high activity levels.
Loewe Volume (Loewe Vol) is used to assess the overall magnitude of the combination interaction in excess of the Loewe additivity model. Loewe Volume is particularly useful when distinguishing synergistic increases in a phenotypic activity (positive Loewe Volume) versus synergistic antagonisms (negative Loewe Volume). […] This model defines additivity as a non-synergistic combination interaction where the combination dose matrix surface should be indistinguishable from either drug crossed with itself. The calculation for Loewe additivity is:

Mino = experiment: as above; conditions: combination with Compound 1
RPMI-8226 = experiment: as above; conditions: combination with Compound 1
Procedure: as §1, §2, §3, §4, §5, §6
(§7) Loewe Volume (Loewe Vol) is used to assess the overall magnitude of the combination interaction in excess of the Loewe additivity model. Loewe Volume is particularly useful when distinguishing synergistic increases in a phenotypic activity (positive Loewe Volume) versus synergistic antagonisms (negative Loewe Volume). […] This model defines additivity as a non-synergistic combination interaction where the combination dose matrix surface should be indistinguishable from either drug crossed with itself.

[1] = as above; conditions: combination with Compound 1; OPM-2
OMP-2 = experiment: as above; conditions: combination with Compound 1; OPM-2
OCI-Ly7 = experiment: as above; conditions: combination with Compound 1, 72 h
NCI-H929 = experiment: as above; conditions: combination with Compound 1
OCI-Ly3 = experiment: as above; conditions: combination with Compound 1; OCI-Ly3; 72 h
RL = experiment: as above; conditions: combination with Compound 1, 72 h
Jeko-1 = experiment: as above; conditions: combination with Compound 1
GRANTA-519 = experiment: as above; conditions: combination with Compound 1
HH = experiment: as above; assay type: cell-based; conditions: combination with Compound 1
Procedure: The method is described as follows.
Additive effect is CI=1.0. […] Antagonistic effect is CI>1.0.
The Synergy Score is calculated as: […]

SU-DHL-4-epst = experiment: as above; conditions: combination with Compound 1, 72 h
TMD8 = experiment: as above; conditions: combination with Compound 1; TMD8; 72 h
KARPAS-422 = experiment: as above; conditions: combination with Compound 1, 72 h
Procedure: as §1, §2, §3, §4, §5, §6, §7

KARPAS-299 = experiment: as above; conditions: combination with Compound 1
U-2932 = experiment: as above; conditions: combination with Compound 1, 72 h

CC(C)C[C@H](NC(=O)[C@H](CCc1ccccc1)NC(=O)CN1CCOCC1)C(=O)N[C@@H](Cc1ccccc1)C(=O)N[C@@H](CC(C)C)C(=O)[C@@]1(C)CO1 [carfilzomib, (S)-4-methyl-N—((S)-1-(((S)-4-methyl-1-((R)-2-methyloxiran-2-yl)-1-oxopentan-2-yl)amino)-1-oxo-3-phenylpropan-2-yl)-2-((S)-2-(2-morpholinoacetamido)-4-phenylbutanamido)pentanamide]
A2 (A2=1 to <3): Synergy Score inhibition (SU-DHL-10-epst) | Synergy Score growth inhibition (WSU-NHL) | Synergy Score growth inhibition (Mino) | Synergy Score growth inhibition (OMP-2) | Synergy Score growth inhibition (OCI-Ly7) | Synergy Score growth inhibition (OCI-Ly3) | Synergy Score growth inhibition (GRANTA-519) | Synergy Score inhibition (SU-DHL-4-epst) | Synergy Score inhibition (TMD8) | Synergy Score growth inhibition (U-2932) | Synergy Score inhibition (U-2932)
A1 (A1=0.0001 to <1): Synergy Score inhibition (DOHH-2) | Synergy Score inhibition (Farage) | Synergy Score inhibition (WSU-NHL) | Synergy Score growth inhibition (HBL-1) | Synergy Score inhibition (HBL-1) | Synergy Score inhibition (Mino) | Synergy Score inhibition (RPMI-8226) | Synergy Score inhibition (OMP-2) | Synergy Score inhibition (OCI-Ly7) | Synergy Score inhibition (NCI-H929) | Synergy Score inhibition (OCI-Ly3) | Synergy Score growth inhibition (RL) | Synergy Score inhibition (RL) | Synergy Score growth inhibition (Jeko-1) | Synergy Score inhibition (Jeko-1) | Synergy Score inhibition (GRANTA-519) | Synergy Score inhibition (HH) | Synergy Score inhibition (KARPAS-422) | Synergy Score growth inhibition (KARPAS-299) | Synergy Score inhibition (KARPAS-299)
A3 (A3=>3): Synergy Score growth inhibition (DOHH-2) | Synergy Score growth inhibition (Farage) | Synergy Score growth inhibition (SU-DHL-10-epst) | Synergy Score growth inhibition (RPMI-8226) | Synergy Score growth inhibition (NCI-H929) | Synergy Score growth inhibition (HH) | Synergy Score growth inhibition (SU-DHL-4-epst) | Synergy Score growth inhibition (TMD8) | Synergy Score growth inhibition (KARPAS-422)
U (U=0.7 to <1): CI50 growth inhibition (DOHH-2) | CI50 inhibition (DOHH-2) | CI50 growth inhibition (Farage) | CI50 inhibition (Farage) | CI50 growth inhibition (SU-DHL-10-epst) | CI50 inhibition (SU-DHL-10-epst) | CI50 growth inhibition (WSU-NHL) | CI50 inhibition (WSU-NHL) | CI50 inhibition (HBL-1) | CI50 growth inhibition (Mino) | CI50 inhibition (Mino) | CI50 growth inhibition (RPMI-8226) | CI50 growth inhibition [1] | CI50 inhibition (OMP-2) | CI50 growth inhibition (NCI-H929) | CI50 growth inhibition (OCI-Ly3) | CI50 growth inhibition (Jeko-1) | CI50 inhibition (Jeko-1) | CI50 growth inhibition (SU-DHL-4-epst) | CI50 inhibition (SU-DHL-4-epst) | CI50 growth inhibition (TMD8) | CI50 inhibition (TMD8) | CI50 inhibition (KARPAS-422) | CI50 growth inhibition (U-2932) | CI50 inhibition (U-2932)
T (T=0.5 to <0.7): CI50 growth inhibition (HBL-1) | CI50 growth inhibition (GRANTA-519) | CI50 growth inhibition (HH) | CI50 inhibition (HH) | CI50 growth inhibition (KARPAS-422)
W (W=≥1): CI50 inhibition (RPMI-8226) | CI50 growth inhibition (OCI-Ly7) | CI50 inhibition (OCI-Ly7) | CI50 inhibition (NCI-H929) | CI50 inhibition (OCI-Ly3) | CI50 growth inhibition (RL) | CI50 inhibition (RL) | CI50 inhibition (GRANTA-519) | CI50 growth inhibition (KARPAS-299) | CI50 inhibition (KARPAS-299)
